Experimental findings from US20060128729A1, “Novel bicyclic heterocyclic compounds, process for their preparation and compositions containing them” (priority 2004, published 2006) are described below.

The test system of data set [1] is human aortic smooth muscle cells. As to the kind of experiment: Smooth muscle cell proliferation assay (radiolabeled thymidine incorporation or CellTiter AQ). The data set is classed as cell-based. The settings on record: human aortic SMC; for IC50: 24 h post treatment in serum-containing growth medium, read-out: Activity: concentration giving 50% inhibition of smooth muscle cell proliferation. As to the method: Primary cultures of human aortic smooth muscle cells were obtained from Clonetics. SMC were initially grown in T-75 flasks prior to seeding in 96 well plates. The 96-well plates were seeded with 4000 cells/well. The following day cells were washed with serum free medium and left in serum free media for 24 hours for serum starvation. The next day cells received growth medium containing serum with or without compound. 24 h post treatment cell proliferation was assayed either assessing the incorporation of radiolabeled thymidine to DNA or using a non-radioactive cell proliferation kit from Promega (CellTiter AQ).
(Dividing cells build labelled thymidine or BrdU into new DNA.)

For data set [2], the system named is MCP-1 (monocyte chemoattractant protein 1). As to the kind of experiment: MCP-1 ELISA on supernatants of stimulated human aortic endothelial cells. The data set is classed as cell-based. Conditions: Homo sapiens, Endothelial cell, HAECs treated with TNFα (0.05 ng/ml) or glycated human serum albumin (300 μg/ml) for 18-24 h; read-out: IC50 in MCP-1 enzyme-linked immunosorbent assay. As to the method:
(§1) For inflammation assays, human aortic endothelial cells (HAECS) in 96 well plates were washed once with treatment medium (basal medium containing 1% FBS). Cells were treated with an inflammatory agent such as TNFα (0.05 ng/ml) or glycated human serum albumin (US Biologicals) as source of advanced glycation end products (AGEs) (300 μg/ml) for 18-24 h in the presence or absence of specified amount of compound. Cell supernatants were collected and used for the estimation of MCP-1 (monocyte chemoattractant protein 1) or IL-6 (interleukin-6) by ELISA. Cell layers were washed and used for determining the levels of vascular cell adhesion molecule-1 (VCAM-1).
MCP-1 ELISA was carried out using Quantikine Human MCP-1 kit as described by the manufacturer (R&D Systems, Inc.). Mouse anti-human MCP-1 was used as the capture antibody and HRP (horse radish peroxidase)-conjugated goat anti-human MCP-1 antibody was used as detection antibody. Culture medium was incubated with the capture antibody (in 96-well plate) for 2 h at room temperature. Wells were washed three times with wash buffer (0.05% Tween-20 in PBS) followed by incubation with detection antibody for 2 h at room temperature. Color development was read at […] in a microplate reader.
(An ELISA detects its analyte on a solid surface through an enzyme-linked reagent.)

Data set [3] deals with VCAM-1 (vascular cell adhesion molecule-1). The data set can be described thus: VCAM-1 ELISA on cell layers of stimulated human aortic endothelial cells. The settings on record: Homo sapiens, Endothelial cell, HAECs treated with TNFα (0.05 ng/ml) or glycated human serum albumin (300 μg/ml) for 18-24 h; read-out: IC50 in VCAM-1 enzyme-linked immunosorbent assay. The data set is classed as cell-based. As to the method: as §1
The cells were fixed cells with 100% methanol for 10 min at room temperature. The methanol was removed and the plate was air-dried. 100 ul of 1:1000 diluted primary antibody (polyclonal goat anti-human VCAM-1—R&D Systems #BBA19) was then added and incubated for 2 h at 37 C. The cells were washed with PBS and 100 ul of 1:5000 dilution of secondary antibody (rabbit anti-goat IgG-HRP—Zymed #81-1620) was added and incubated for 1 h at room temperature. Cells were washed and 100 ul of substrate solution (R&D Systems# DY999) was added and incubated for 20 min in the dark at room temp. 50 μl of stop solution (2N sulfuric acid) was added to the wells and absorbency at 450 nm was noted.

The next data set deals with IL-6 (interleukin-6). As to the kind of experiment: IL-6 ELISA on media of stimulated human aortic endothelial cells. Conditions: Endothelial cell; HAECs treated with TNFα (0.05 ng/ml) or glycated human serum albumin (300 μg/ml) for 18-24 h; read-out: IC50 in IL-6 enzyme-linked immunosorbent assay. The data set is classed as cell-based. As to the method:
as §1
IL-6 levels in endothelial cell media were determined using DuaSet IL-6 ELISA kit from R&D Systems (Cat No DY206) as described by the manufacturer. Mouse anti-human IL-6 antibody was used as the capture antibody and biotinylated goat anti-human IL-6 was used as detection antibody. Culture medium was incubated with the capture antibody (in 96-well plate) for 2 h at room temperature. Wells were washed three times with wash buffer (0.05% Tween-20 in PBS) followed by incubation with detection antibody for 2 h at room temperature. The wells were then incubated with streptavidin HRP and color development was read at 450 nm in a microplate reader.

Structures can show the parent of a compound that is named as a salt.

For `CCCc1nn(C)c2c(Nc3ccc(OC)c(F)c3)nc(-c3ccc(F)cc3)nc12` [E 1, (3-fluoro-4-methoxy-phenyl)-[5-(4-fluoro-phenyl)-1-methyl-3-propyl-1H-pyrazolo[4,3-d]pyrimidin-7-yl]-amine hydrochloride], the IC50 is 0.89 µM in data set [1], 7.2 µM in data set [2], 11.8 µM in data set [3] and 5.4 µM in the data set on IL-6 (interleukin-6).

As a reminder, the melting point is the temperature of the solid-liquid transition. `CCCc1nn(C)c2c(Nc3ccc(OC)c(Cl)c3)nc(-c3ccc(F)cc3)nc12.Cl` [E 2, (3-chloro-4-methoxy-phenyl)-[5-(4-fluoro-phenyl)-1-methyl-3-propyl-1H-pyrazolo[4,3-d]pyrimidin-7-yl]-amine-hydrochloride] showed a melting point of 253.65 °C. Besides, the IC50 in data set [1] amounted to 1.62 µM. Moreover, the IC50 in data set [2] is 13.4 µM. The IC50 in data set [3] came to 10.4 µM. The IC50 with IL-6 (interleukin-6) is 9 µM.

`CCCc1nn(C)c2c(Nc3ccc4c(c3)OCO4)nc(-c3ccc(F)cc3)nc12.Cl` [E 8, benzo[1,3]dioxol-5-yl-[5-(4-fluoro-phenyl)-1-methyl-3-propyl-1H-pyrazolo[4,3-d]pyrimidin-7-yl]-amine-hydrochloride] showed a melting point of less than 260 °C. Besides, in data set [1], the IC50 worked out at 1 µM. In addition, the IC50 in data set [2] came to 8.7 µM. For the same compound, the IC50 in data set [3] was 12.4 µM.

A word on the inhibition: it is the relative decrease from the control value, in per cent. Low readings indicate little suppression, high ones strong suppression. For the compound `CCCc1nn(C)c2c(Nc3ccc(OC)c(F)c3)nc(-c3cccs3)nc12.Cl` [E 10, (3-fluoro-4-methoxy-phenyl)-(1-methyl-3-propyl-5-thiophen-2-yl-1H-pyrazolo[4,3-d]pyrimidin-7-yl) -amine hydrochloride], the melting point was in the range of 238 to 242 °C. Besides, in data set [1] (at 1 μM, 24 h post treatment), the inhibition at 1 µM worked out at 96%. The IC50 in data set [2] was 1.6 µM. For the same compound, in data set [3], the IC50 is 11.8 µM.

In turn, `CCCc1nn(C)c2c(Nc3ccc(OC)c(Cl)c3)nc(-c3ccccc3)nc12.Cl` [E 27, (3-chloro-4-methoxy-phenyl)-(1-methyl-5-phenyl-3-propyl-1H-pyrazolo[4,3-d]pyrimidin-7-yl)-amine hydrochloride] registered a melting point of 238 to 240 °C. The IC50 in data set [1] worked out at 1.28 µM. The IC50 in data set [2] worked out at 5.7 µM. For the same compound, the IC50 in data set [3] amounted to 8.4 µM. In addition, in the data set with IL-6 (interleukin-6), the IC50 turned out to be 9.6 µM.

The compound `CCCc1nn(C)c2c(Nc3ccc(OC)c(F)c3)nc(-c3ccccc3)nc12.Cl` [E 28, (3-fluoro-4-methoxy-phenyl)-(1-methyl-5-phenyl-3-propyl-1H-pyrazolo[4,3-d]pyrimidin-7-yl)-amine hydrochloride] showed a melting point of 248 to 250 °C. Besides, in data set [1] (at 5 μM, 24 h post treatment), the inhibition at 5 µM stood at 70%. The IC50 in data set [2] was 7.5 µM. Also, the IC50 in data set [3] was determined as 8.4 µM.

As to `COc1ccc(Nc2nc(-c3ccc(F)cc3)cc3c2c(C)nn3C)cc1F` [E 73, (3-fluoro-4-methoxy-phenyl)-[6-(4-fluoro-phenyl)-1,3-dimethyl-1H-pyrazolo[4,3-c]pyridin-4-yl]-amine hydrochloride], the results for the IC50 in data set [1], in data set [2] and in data set [3] were 0.9 µM, 4.1 µM and 13.7 µM, respectively.

Consider `COc1ccc(Nc2nc(-c3ccc(F)cc3)nc3c2cnn3-c2ccccc2)cc1F` [E 80, (3-fluoro-4-methoxy phenyl)-[6-(4-fluoro-phenyl)-1-phenyl-1H-pyrazolo[3,4-d]-pyrimidin-4yl]amine hydrochloride], for which the IC50 in data set [1] was 0.46 µM; in data set [2], 5.4 µM; in data set [3], 11.1 µM.

As for `Cl.Fc1ccc(-c2nc(Nc3ccc(Cl)c(C(F)(F)F)c3)c3cnn(-c4ccccc4)c3n2)cc1` [E 81, (4-chloro-3-trifluoromethyl-phenyl)-[6-(4-fluoro-phenyl)-1-phenyl-1H-pyrazolo[3,4-d]pyrimidin-4-yl]-amine hydrochloride], the melting point was found to be 203.83 °C. Also, the IC50 in data set [1] was 3.9 µM. In data set [2], the IC50 came out at 5.2 µM. The IC50 in data set [3] is 8.9 µM.
